Series [1] can be described thus: Assessment of capsules after manufacture: amount of tasquinimod and of decomposition products. In kind it is physicochemical. To be noted: for amount of compound III in capsules, relative to the amount of tasquinimod / amount of tasquinimod in capsules: after manufacture; for Decomposition products (% w/w), relative to the amount of tasquinimod in capsule / Tasquinimod (mg/capsule): 0 months (after manufacturing). An excerpt:
In some embodiments, the method disclosed herein comprises storing (keeping) a sample of the pharmaceutical product for a period of time, preferably under selected conditions of temperature and humidity. The amount (or concentration) of tasquinimod and of at least one of compounds I, II, III and IV in the sample may preferably be determined at the beginning or before the storage period and at the end of the storage period. The selected storage conditions may include a temperature in the range of, for example, 20° C. to 40° C., and a relative humidity in the surrounding atmosphere in the range of, for example, 30% to 75%; e.g. 25° C. and 60% RH, or 30° C. and 65% RH, or 35° C. and 70% RH, or 40° C. and 75% RH. The storage period may extend over a time period in the range of, for example, several weeks to several years. For example, the stability testing period (“storage period”) may be 2 weeks, 3 weeks, 1 month, 2 months, 3 months, 4 months, 5 months, 6 months, 9 months, 1 year, 18 months, 2 years, 3 years, 4 years or even 5 years or longer. A shorter storage period may be selected by use of higher storage temperature and/or higher relative humidity (RH). The total amount of a tasquinimod decomposition product in the sample at the end of the storage period may be determined by, for example, HPLC.
The obtained batch of capsules was assessed by determining the amount of tasquinimod and the amount of compound III in a sample of the capsules. The selected criterion for approving the batch was that the capsules of the sample contain not more than 1.0% w/w of compound III relative to the amount of tasquinimod. […] Therefore, according to the selected criterion for approval, the batch of capsules was determined to be suitable for distribution.
The obtained batch of capsules was assessed by determining the amount of tasquinimod and the amount of compounds I, II, III and IV in a sample of the capsules. The selected criterion for approving the batch was that the capsules of the sample contain not more than in total 5% w/w of compounds I-IV relative to the amount of tasquinimod. […] Therefore, according to the selected criterion for approval, the batch of capsules was determined to be suitable for distribution.
The obtained batch of capsules was subjected to multiple assessments, viz. a first assessment comprising determining the amount of tasquinimod and the amount of compounds I, II, III and IV in a sample of the capsules directly after manufacturing, whereby the selected criterion for approving the batch for distribution was that the capsules of the sample, in a water impermeable blister pack, contain not more than in total 5% w/w of compounds I-IV relative to the amount of tasquinimod, followed by eight further, independent assessments, by determining the amount of tasquinimod and the amount of each one of compounds I, II, III and IV in a sample of the capsules at the end of a period of stability testing (by keeping the capsules, in a water impermeable blister pack, at 25° C./60% RH) of 3, 6, 9, 12, 18, 24, 36 and 48 months, respectively, whereby each time the criterion for approving the batch was that the capsules of the sample, at the end of each period of stability testing, contain a total amount of compounds I-IV of not more than 5.0% w/w, relative to the amount of tasquinimod in the capsules.

A short description of series [2]: Drug product stability studies (general observations). The series is classed as physicochemical. An excerpt: In a drug product, compound I is formed with compound II from hydrolysis of tasquinimod. […] Compound II is further decarboxylated to form compound III.
Compound III is the decarboxylated species formed from the degradation of compound II.
The mechanism for formation of compound IV in a drug product is unknown.

`COc1cccc2c1c(O)cc(=O)n2C` [Compound III, 4-hydroxy-5-methoxy-1-methylquinolin-2(1H)-one]: the “amount of compound III in capsules, relative to the amount of tasquinimod” value turned out to be 0.07 % w/w in series [1] (0.25 mg capsules of Example 10); 0.06 % w/w in series [1] (0.25 mg capsules of Example 13); 0.03 % w/w in series [1] (0.5 mg capsules of Example 7); 0.01 % w/w in series [1] (1 mg capsules of Example 2); 0.02 % w/w in series [1] (1 mg capsules of Example 16). The “Decomposition products (% w/w), relative to the amount of tasquinimod in capsule” value in series [1] (0.5 mg capsules of Example 28) and in series [1] (1.0 mg capsules of Example 29) was less than 0.05 % w/w throughout. In addition, the “change of the amount of the compound in tasquinimod drug product on storage” value in series [2] is on record as “increase under any conditions”.

For the compound `COc1cccc2c1c(O)c(C(=O)N(C)c1ccc(C(F)(F)F)cc1)c(=O)n2C` [Tasquinimod, 4-hydroxy-5-methoxy-N, 1-dimethyl-2-oxo-N-[4-(trifluoromethyl)phenyl]-1,2-dihydroquinoline-3-carboxamide], the “amount of tasquinimod in capsules” value in series [1] (0.25 mg capsules of Example 10) worked out at 0.252 mg/capsule; in series [1] (0.25 mg capsules of Example 13), 0.256 mg/capsule; in series [1] (0.25 mg capsules of Example 19) it was 0.244 mg/capsule; in series [1] (0.5 mg capsules of Example 7), 0.498 mg/capsule; in series [1] (1 mg capsules of Example 2) it was 1.05 mg/capsule; in series [1] (1 mg capsules of Example 16) it was 0.994 mg/capsule. Also, the entries for the “Tasquinimod (mg/capsule)” value in series [1] (0.5 mg capsules of Example 28) and in series [1] (1.0 mg capsules of Example 29) were 0.500 mg/capsule and 0.992 mg/capsule, respectively.

Source of the values: patent US20240277693A1, “A PHARMACEUTICAL PRODUCT CONTAINING TASQUINIMOD AND A METHOD FOR ASSESSING THE PURITY OF SAID PRODUCT” (ACTIVE BIOTECH AB, priority 2021, published 2024).
